Experimental data published in ChEMBL document CHEMBL3217601, “Optimized glucuronidation of dual pharmacology -2 agonists/M3 antagonists for the treatment of COPD” (Medchemcomm, 2011).
pEC50, pKi: −log10 of the molar value.

Legend:
[1] = target: Beta-1 adrenergic receptor (Homo sapiens, UniProt P08588); assay: Agonist activity at beta-1 adrenoceptor (unknown origin)
[2] = target: Muscarinic acetylcholine receptor M3 (Homo sapiens, UniProt P20309); assay: Displacement of [3H]-N-methyl scopolamine from human cloned muscarinic M3 receptor
[3] = target: Beta-2 adrenergic receptor (Homo sapiens, UniProt P07550); assay: Agonist activity at human beta-2 adrenoceptor expressed in CHO cells assessed as stimulation of intracellular cAMP production; type: functional, cell-based
[4] = Intrinsic clearance in human liver microsomes assessed as glucuronidation in absence of NADPH and presence of microsomal activator Brij58 and UDPGA
[5] = Drug metabolism of the compound in human liver microsomes assessed as glucuronidation in absence of NADPH and presence of microsomal activator Brij58 and UDPGA
[6] = Therapeutic index, ratio of cardiovascular toxicity in dog to bronchodilatory activity in intratracheally dosed dog; type: organism-based, Canis lupus familiaris, Trachea; conditions: in vivo, inhaled or intranasal, read-out: TI

Beta-2 adrenergic receptor, sequence (P07550 whole entry): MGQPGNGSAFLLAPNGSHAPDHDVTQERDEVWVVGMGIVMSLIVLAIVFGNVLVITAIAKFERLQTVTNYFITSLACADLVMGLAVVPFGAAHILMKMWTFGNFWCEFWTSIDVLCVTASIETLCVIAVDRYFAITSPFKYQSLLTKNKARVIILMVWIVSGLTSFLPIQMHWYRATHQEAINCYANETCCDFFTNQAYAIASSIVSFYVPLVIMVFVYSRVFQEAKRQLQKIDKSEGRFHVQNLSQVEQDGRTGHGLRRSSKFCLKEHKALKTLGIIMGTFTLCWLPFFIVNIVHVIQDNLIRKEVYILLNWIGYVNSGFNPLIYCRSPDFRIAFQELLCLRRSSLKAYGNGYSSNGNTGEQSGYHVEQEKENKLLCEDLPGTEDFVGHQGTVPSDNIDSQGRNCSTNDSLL
Muscarinic acetylcholine receptor M3, sequence (P20309 whole entry): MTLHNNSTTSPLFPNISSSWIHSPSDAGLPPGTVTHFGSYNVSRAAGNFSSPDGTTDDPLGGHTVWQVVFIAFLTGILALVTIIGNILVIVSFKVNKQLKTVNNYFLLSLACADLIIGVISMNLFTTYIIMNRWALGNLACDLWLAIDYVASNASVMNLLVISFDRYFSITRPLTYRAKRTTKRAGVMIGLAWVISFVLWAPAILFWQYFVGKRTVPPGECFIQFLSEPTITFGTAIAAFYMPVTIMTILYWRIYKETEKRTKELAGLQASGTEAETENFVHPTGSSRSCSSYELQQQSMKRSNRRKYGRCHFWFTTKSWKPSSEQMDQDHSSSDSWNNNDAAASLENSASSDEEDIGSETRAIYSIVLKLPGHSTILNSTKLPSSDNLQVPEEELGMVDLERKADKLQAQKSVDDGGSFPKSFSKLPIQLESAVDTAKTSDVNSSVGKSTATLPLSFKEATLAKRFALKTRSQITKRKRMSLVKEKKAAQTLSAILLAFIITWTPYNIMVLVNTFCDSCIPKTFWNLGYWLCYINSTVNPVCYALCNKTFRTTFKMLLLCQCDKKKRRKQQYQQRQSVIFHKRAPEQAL
Beta-1 adrenergic receptor, sequence (P08588 whole entry): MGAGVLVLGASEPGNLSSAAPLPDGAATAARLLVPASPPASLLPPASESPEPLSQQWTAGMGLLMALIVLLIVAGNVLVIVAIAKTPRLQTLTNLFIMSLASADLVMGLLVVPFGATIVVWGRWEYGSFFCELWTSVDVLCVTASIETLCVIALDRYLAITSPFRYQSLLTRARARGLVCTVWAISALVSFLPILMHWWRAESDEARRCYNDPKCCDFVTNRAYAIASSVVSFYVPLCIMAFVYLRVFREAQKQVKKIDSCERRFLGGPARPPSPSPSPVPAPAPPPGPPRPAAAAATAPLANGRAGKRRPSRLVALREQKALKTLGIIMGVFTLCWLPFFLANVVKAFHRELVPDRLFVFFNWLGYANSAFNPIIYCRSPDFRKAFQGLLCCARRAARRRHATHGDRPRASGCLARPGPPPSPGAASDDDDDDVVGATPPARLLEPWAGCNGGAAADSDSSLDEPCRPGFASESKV

Compound | pEC50 [1] | pKi [2] | pEC50 [3] | microsomal CLint [4] | microsomal CLint [5] | selectivity ratio [6]
CS(=O)(=O)Nc1cc([C@@H](O)CNCCCCCCCCCN2CCC(OC(=O)Nc3ccccc3-c3ccccc3)CC2)ccc1O | < 5.00 | 9.41 | 7.13 | 40 µL/min/mg | < 2 µL/min/mg | –
CS(=O)(=O)Nc1cc([C@@H](O)CNCCCCCCCCCCCN2CCC(OC(=O)Nc3ccccc3-c3ccc(O)c(Cl)c3)CC2)ccc1O | < 5.00 | 8.36 | 6.71 | 45 µL/min/mg | 16 µL/min/mg | –
CS(=O)(=O)Nc1cc([C@@H](O)CNCCCCCCCCCCN2CCC(OC(=O)Nc3ccccc3-c3ccc(O)c(Cl)c3)CC2)ccc1O | < 5.00 | 8.70 | 7.68 | 34 µL/min/mg | 22 µL/min/mg | –
CS(=O)(=O)Nc1cc([C@@H](O)CNCCCCCCCCCN2CCC(OC(=O)Nc3ccccc3-c3ccc(O)cc3)CC2)ccc1O | < 5.00 | 8.66 | 7.59 | 20 µL/min/mg | 4 µL/min/mg | –
CS(=O)(=O)Nc1cc([C@@H](O)CNCCCCCCCCCN2CCC(OC(=O)Nc3ccccc3-c3cc(C#N)ccc3O)CC2)ccc1O | < 5.00 | < 7.14 | – | 33 µL/min/mg | 3.7 µL/min/mg | –
CS(=O)(=O)Nc1cc([C@@H](O)CNCCCCCCCCCN2CCC(OC(=O)Nc3ccccc3-c3cccc(F)c3O)CC2)ccc1O | < 5.00 | 8.00 | – | – | < 2 µL/min/mg | –
CS(=O)(=O)Nc1cc([C@@H](O)CNCCCCCCCCCN2CCC(OC(=O)Nc3cc(F)ccc3-c3ccc(O)c(Cl)c3)CC2)ccc1O | < 5.00 | 8.36 | 7.24 | 15 µL/min/mg | 6 µL/min/mg | –
CS(=O)(=O)Nc1cc([C@@H](O)CNCCCCCCCCCN2CCC(OC(=O)Nc3ccc(F)cc3-c3ccc(O)c(Cl)c3)CC2)ccc1O | < 5.00 | 8.96 | 7.64 | 25 µL/min/mg | 17 µL/min/mg | –
Cc1cc(C)c(NC(=O)OC2CCN(CCCCCCCCCNC[C@H](O)c3ccc(O)c(NS(C)(=O)=O)c3)CC2)c(-c2ccc(O)c(Cl)c2)c1 | < 5.00 | 7.42 | 7.44 | 79 µL/min/mg | 32 µL/min/mg | –
O=C(Nc1ccccc1-c1ccccc1)OC1CCN(CCCCCCCCCNC[C@H](O)c2ccc(O)c3[nH]c(=O)ccc23)CC1 | < 5.00 | – | – | – | – | –
CS(=O)(=O)Nc1cc([C@@H](O)CNCCCCCCCCCN2CCC(OC(=O)Nc3ccccc3-c3ccc(F)cc3O)CC2)ccc1O | < 5.00 | 7.59 | – | 8.8 µL/min/mg | < 2 µL/min/mg | –
CS(=O)(=O)Nc1cc([C@@H](O)CNCCCCCCCCCN2CCC(OC(=O)Nc3ccccc3-c3cc(O)cc(F)c3)CC2)ccc1O | < 5.00 | 7.12 | 7.19 | 28 µL/min/mg | 4 µL/min/mg | –
CS(=O)(=O)Nc1cc([C@@H](O)CNCCc2ccc(OCCCN3CCC(OC(=O)Nc4ccccc4-c4ccc(O)c(Cl)c4)CC3)cc2)ccc1O | < 5.00 | 8.51 | 7.89 | 33 µL/min/mg | 29 µL/min/mg | –
OCc1cc(C(O)CNCCCCCCOCCCCc2ccccc2)ccc1O (stereo not drawn) [SALMETEROL] | – | – | – | – | – | 3
